In US6737383B1, “Herbicidal oxadiazolidines” (priority 1999, dated 2004):

Experiments:
[1] = system: bedstraw; test: Test B pre/postemergence bedstraw; format: in vivo, Galium aparine; conditions: for Bedstraw plant response rating: Postemergence; for Plant response rating, Bedstraw: Preemergence
Outline: (§1)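 Test chemicals in a non-phytotoxic solvent mixture with surfactant were sprayed preemergence onto planted seeds and postemergence onto plants 2 to 18 cm tall (1- to 4-leaf stage). After twelve to sixteen days in a greenhouse, injury was visually rated against untreated controls from 0 (no effect) to 10 (complete control).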

[2] = system: blackgrass; test: Test B pre/postemergence blackgrass; format: in vivo, Alopecurus myosuroides
Outline: as §1

[3] = system: surinam grass; test: Test B pre/postemergence surinam grass; format: in vivo, Brachiaria decumbens
Outline: as §1

[4] = system: corn; test: Test B pre/postemergence corn; format: in vivo, Zea mays; conditions: for Corn plant response rating: Postemergence; for Plant response rating, Corn: Preemergence
Outline: as §1

[5] = system: crabgrass; test: Test B pre/postemergence crabgrass; format: in vivo, Digitaria sanguinalis
Outline: as §1

[6] = system: giant foxtail; test: Test B pre/postemergence giant foxtail; format: in vivo, Setaria faberii
Outline: as §1

[7] = system: morningglory; test: Test B pre/postemergence morningglory; format: in vivo, Ipomoea hederacea; conditions: for Morningglory plant response rating: Postemergence; for Plant response rating, Morningglory: Preemergence
Outline: as §1

[8] = system: pigweed; test: Test B pre/postemergence pigweed; format: in vivo, Amaranthus retroflexus
Outline: as §1

[9] = system: soybean; test: Test B pre/postemergence soybean; format: in vivo, Glycine max
Outline: as §1

[10] = system: velvetleaf; test: Test B pre/postemergence velvetleaf; format: in vivo, Abutilon theophrasti
Outline: as §1

[11] = system: wheat; test: Test B pre/postemergence wheat; format: in vivo, Triticum aestivum
Outline: as §1

[12] = system: wild oat; test: Test B pre/postemergence wild oat; format: in vivo, Avena fatua
Outline: as §1

[13] = system: purple nutsedge; test: Test B pre/postemergence purple nutsedge; format: in vivo, Cyperus rotundus
Outline: as §1

[14] = system: rice; test: Test B flood test rice; format: in vivo, Oryza sativa
Outline: (§2)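 Plants were grown to the 2-leaf stage before treatment with test chemical, then held in a greenhouse for twelve to sixteen days. Injury was visually rated against untreated controls on a 0–10 scale, where 0 is no effect and 10 is complete control.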

[15] = system: smallflower flatsedge; test: Test B flood test smallflower flatsedge; format: in vivo, Cyperus difformis
Outline: as §2

[16] = system: duck salad; test: Test B flood test duck salad; format: in vivo, Heteranthera limosa
Outline: as §2

[17] = Rate 62 g/ha, scale 0 to 10, 0 is no effect, 10 is complete control
[18] = Rate 125 g/ha, scale 0 to 10 (0 no effect, 10 complete control)
[19] = Rate 250 g/ha, scale of 0 to 10 where 0 is no effect and 10 is complete control
[20] = Rate 125 g/ha, scale 0 to 10, 0 no effect, 10 complete control
[21] = Postemergence, Rate 62 g/ha, scale 0 to 10, 0 is no effect, 10 is complete control
[22] = Postemergence, Rate 250 g/ha, scale 0 to 10, 0 no effect, 10 complete control
[23] = Preemergence, Rate 62 g/ha, scale 0 to 10, 0 is no effect, 10 is complete control
[24] = Preemergence, Rate 125 g/ha, scale 0 to 10 (0 no effect, 10 complete control)
[25] = Preemergence, Rate 250 g/ha, scale of 0 to 10 where 0 is no effect and 10 is complete control
[26] = Preemergence, Rate 500 g/ha, scale 0 (no effect) to 10 (complete control)
[27] = Rate 125 g/ha, Postemergence, scale 0 to 10, 0 no effect, 10 complete control
[28] = Rate 500 g/ha, Postemergence, scale 0 to 10, 0 no effect, 10 complete control
[29] = Rate 250 g/ha, scale 0 to 10, 0 no effect, 10 complete control
[30] = Rate 500 g/ha, scale 0 to 10, 0 no effect, 10 complete control
[31] = Rate 125 g/ha, Postemergence section (flood test species), scale 0 to 10, 0 no effect, 10 complete control
[32] = Rate 500 g/ha, listed under Postemergence (flood test species), scale 0 to 10, 0 no effect, 10 complete control
[33] = flood test, listed under Postemergence, Rate 250 g/ha, scale 0 to 10, 0 no effect, 10 complete control

Cc1cccc(Cl)c1-n1c(=O)on(C(=O)N(c2ccc(F)cc2)C(C)C)c1=O [Compound 53]
Bedstraw plant response rating [1, 17]: 2
Plant response rating, Bedstraw [1, 17]: 0
Plant response rating, Bedstraw [1, 18]: 0
Plant response rating, Bedstraw [1, 19]: 0
Bedstraw plant response rating [1, 20]: 3
Blackgrass plant response rating [2, 21]: 0
Blackgrass plant response rating [2, 22]: 0
Plant response rating, Blackgrass [2, 23]: 0
Plant response rating, Blackgrass [2, 24]: 1
Plant response rating, Blackgrass [2, 25]: 1
Blackgrass plant response rating [2, 26]: 4
Blackgrass plant response rating [2, 27]: 0
Blackgrass plant response rating [2, 28]: 0
B. signalgrass plant response rating [3, 21]: 0
B. signalgrass plant response rating [3, 22]: 0
Plant response rating, B. signalgrass [3, 23]: 0
Plant response rating, B. signalgrass [3, 24]: 0
Plant response rating, B. signalgrass [3, 25]: 2
B. signalgrass plant response rating [3, 26]: 3
B. signalgrass plant response rating [3, 27]: 0
B. signalgrass plant response rating ([3]; Rate 500 g/ha, Postemergence, scale of 0 to 10 where 0 is no effect and 10 is complete control): 0
Corn plant response rating [4, 17]: 0
Corn plant response rating [4, 29]: 0
Plant response rating, Corn [4, 17]: 0
Plant response rating, Corn [4, 18]: 0
Plant response rating, Corn [4, 19]: 0
Corn plant response rating [4, 20]: 0
Corn plant response rating [4, 30]: 0
Crabgrass plant response rating [5, 21]: 1
Crabgrass plant response rating [5, 22]: 6
Plant response rating, Crabgrass [5, 23]: 3
Plant response rating, Crabgrass [5, 24]: 5
Plant response rating, Crabgrass [5, 25]: 7
Crabgrass plant response rating [5, 26]: 10
Crabgrass plant response rating [5, 27]: 4
Crabgrass plant response rating [5, 28]: 10
Giant foxtail plant response rating [6, 21]: 0
Giant foxtail plant response rating [6, 22]: 3
Plant response rating, Giant foxtail [6, 23]: 3
Plant response rating, Giant foxtail [6, 24]: 3
Plant response rating, Giant foxtail [6, 25]: 8
Giant foxtail plant response rating [6, 26]: 10
Giant foxtail plant response rating [6, 27]: 3
Giant foxtail plant response rating [6, 28]: 3
Morningglory plant response rating [7, 17]: 1
Morningglory plant response rating [7, 29]: 5
Plant response rating, Morningglory [7, 17]: 0
Plant response rating, Morningglory [7, 18]: 0
Plant response rating, Morningglory [7, 19]: 0
Morningglory plant response rating [7, 20]: 1
Morningglory plant response rating [7, 30]: 6
Redroot pigweed plant response rating [8, 21]: 1
Redroot pigweed plant response rating [8, 22]: 6
Plant response rating, Redroot pigweed [8, 23]: 0
Plant response rating, Redroot pigweed [8, 24]: 0
Plant response rating, Redroot pigweed [8, 25]: 0
Redroot pigweed plant response rating [8, 26]: 3
Redroot pigweed plant response rating [8, 27]: 3
Redroot pigweed plant response rating [8, 28]: 10
Soybean plant response rating [9, 21]: 3
Soybean plant response rating [9, 22]: 3
Plant response rating, Soybean [9, 23]: 0
Plant response rating, Soybean [9, 24]: 0
Plant response rating, Soybean [9, 25]: 0
Soybean plant response rating [9, 26]: 0
Soybean plant response rating [9, 27]: 3
Soybean plant response rating [9, 28]: 3
Velvetleaf plant response rating [10, 21]: 0
Velvetleaf plant response rating [10, 22]: 1
Plant response rating, Velvetleaf [10, 23]: 0
Plant response rating, Velvetleaf [10, 24]: 0
Plant response rating, Velvetleaf [10, 25]: 0
Velvetleaf plant response rating [10, 26]: 0
Velvetleaf plant response rating [10, 27]: 0
Velvetleaf plant response rating [10, 28]: 1
Wheat plant response rating [11, 21]: 0
Wheat plant response rating [11, 22]: 0
Plant response rating, Wheat [11, 23]: 0
Plant response rating, Wheat [11, 24]: 0
Plant response rating, Wheat [11, 25]: 0
Wheat plant response rating [11, 26]: 0
Wheat plant response rating [11, 27]: 0
Wheat plant response rating [11, 28]: 0
Wild oats plant response rating [12, 21]: 0
Wild oats plant response rating [12, 22]: 0
Plant response rating, Wild oats [12, 24]: 0
Plant response rating, Wild oats [12, 25]: 0
Wild oats plant response rating [12, 26]: 0
Wild oats plant response rating [12, 27]: 0
Wild oats plant response rating [12, 28]: 2
Nutsedge plant response rating [13, 21]: 0
Nutsedge plant response rating [13, 22]: 0
Plant response rating, Nutsedge [13, 23]: 0
Plant response rating, Nutsedge [13, 24]: 0
Plant response rating, Nutsedge [13, 25]: 0
Nutsedge plant response rating [13, 26]: 0
Nutsedge plant response rating [13, 27]: 0
Nutsedge plant response rating [13, 28]: 0
Rice plant response rating [14, 21]: 0
Rice plant response rating [14, 31]: 0
Rice plant response rating [14, 32]: 0
Rice plant response rating [14, 33]: 0
S. Flatsedge plant response rating [15, 21]: 0
S. Flatsedge plant response rating [15, 31]: 0
S. Flatsedge plant response rating [15, 32]: 0
S. Flatsedge plant response rating [15, 33]: 0
Ducksalad plant response rating [16, 21]: 0
Ducksalad plant response rating [16, 31]: 0
Ducksalad plant response rating [16, 32]: 0
Ducksalad plant response rating [16, 33]: 0
